In general, IC50 refers to the point on the concentration scale where inhibition reaches its midpoint.

The first series has as its target T1, human type 1 glycine transporter (GlyT1) (Homo sapiens, UniProt P48067).
T1 construct: Glioma T98G cells endogenously expressing human type 1 glycine transporter (GlyT1) were used; endogenous in cells; host or cells: T98G human glioma cells
T1 sequence (P48067 1-706): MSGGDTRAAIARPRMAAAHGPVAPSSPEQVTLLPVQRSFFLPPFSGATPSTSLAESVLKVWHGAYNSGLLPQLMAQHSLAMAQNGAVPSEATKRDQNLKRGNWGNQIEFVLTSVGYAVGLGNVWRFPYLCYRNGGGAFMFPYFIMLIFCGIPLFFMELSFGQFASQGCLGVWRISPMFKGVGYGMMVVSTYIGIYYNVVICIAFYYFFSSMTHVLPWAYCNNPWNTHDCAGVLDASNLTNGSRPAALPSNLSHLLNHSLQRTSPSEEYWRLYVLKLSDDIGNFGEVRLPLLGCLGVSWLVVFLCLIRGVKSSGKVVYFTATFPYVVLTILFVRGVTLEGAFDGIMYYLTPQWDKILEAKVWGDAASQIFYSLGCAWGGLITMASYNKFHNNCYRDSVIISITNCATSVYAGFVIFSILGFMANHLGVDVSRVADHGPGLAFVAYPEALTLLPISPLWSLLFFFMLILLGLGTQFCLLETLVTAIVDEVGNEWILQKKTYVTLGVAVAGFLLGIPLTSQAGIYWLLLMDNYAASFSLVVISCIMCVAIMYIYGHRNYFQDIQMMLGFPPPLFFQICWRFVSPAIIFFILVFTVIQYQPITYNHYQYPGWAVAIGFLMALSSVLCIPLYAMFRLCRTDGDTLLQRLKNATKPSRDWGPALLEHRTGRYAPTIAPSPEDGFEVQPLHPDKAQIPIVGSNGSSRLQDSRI
The experiment in a line: Glycine uptake inhibition experiment ([3H]glycine uptake in T98G cells). Type of series: cell-based. The following applies: [3H]glycine 250 nM, 15 min, room temperature, read-out: glycine uptake inhibitory activity (IC50 value). How it is done: A glycine uptake experiment was conducted as described in Neuron, 8, 927-935, 1992. Glioma T98G cells endogenously expressing human type 1 glycine transporter (GlyT1) were used. T98G cells were seeded in a 96-well plate at 2.0×10^4 cells/well and cultured overnight in a CO2 incubator. A test compound was dissolved in a 100% DMSO solution and then dissolved in 10 mM HEPES buffer (pH 7.4) containing 150 mM sodium chloride, 1 mM calcium chloride, 5 mM potassium chloride, 1 mM magnesium chloride, 10 mM glucose and 0.2% bovine serum albumin. After removing the cell culture medium, the cells were pre-treated with the test compound for 10 minutes. Subsequently, the test compound and [^3H]glycine (final concentration: 250 nM) were added to the cells and incubated at room temperature for 15 minutes. After the incubation, the extracellular solution was aspirated with a manifold to remove the excess labeled glycine existing outside the cells, and the cells were then lysed with 0.5 M aqueous sodium hydroxide. The amount of glycine uptake was determined by measuring radioactivity in the cell lysate using a liquid scintillation counter. Glycine uptake in the presence of 10 μM ALX5407 was defined as non-specific uptake, and the value calculated by subtracting this non-specific uptake from the total uptake in the absence of 10 μM ALX5407 was defined as specific uptake. Moreover, an inhibition curve was obtained for each test compound at concentrations of […] to calculate the glycine uptake inhibitory activity (IC50 value) of each test substance.
It should be noted that ALX5407 is a HCl salt of N-[(3R)-3-([1,1′-biphenyl]-4-yloxy)-3-(4-fluorophenyl)propyl]-N-methylglycine.
For the molecule `CCC(CC)N(Cc1ccc(F)c(-c2cccc(CO)c2)c1)C(=O)c1cn(C)cn1` [Compound 11], the IC50 came out at 35.1 nM. The same measure, in the same setting: as for `CCn1cnc(C(=O)N(Cc2ccc(F)c(-c3ccc(OC(F)(F)F)cc3)c2)C(C)C)c1` [Compound 40, 1-Ethyl-N-{[6-fluoro-4′-(trifluoromethoxy)biphenyl-3-yl]methyl}-N-(propan-2-yl)-1H-imidazole-4-carboxamide], the figure is 35.9 nM; as for `CC(C)N(Cc1ccc(F)c(-c2ccccc2F)c1)C(=O)c1cn(C)cn1` [Compound 23], 21.4 nM; as for `Cn1cnc(C(=O)N(Cc2ccc(F)c(-c3cccc(CO)c3)c2)C2CCC2)c1` [Compound 13, N-Cyclobutyl-N-{[6-fluoro-3′-(hydroxymethyl)biphenyl-3-yl]methyl}-1-methyl-1H-imidazole-4-carboxamide], 4.33 nM. Take `Cn1cnc(C(=O)N(Cc2ccc(F)c(-c3cccc(CO)c3)c2)C2CCCC2)c1` [Compound 14]: the concentration for half-maximal inhibition (IC50) worked out at 2.78 nM. On to `CC(C)N(Cc1ccc(F)c(-c2cc(F)cc(F)c2)c1)C(=O)c1cn(C)cn1` [Compound 28], for which the half-maximal inhibitory concentration (IC50) stood at 22.6 nM.

With `CC(C)N(Cc1ccc(F)c(-c2cccc(OC(F)F)c2)c1)C(=O)c1cn(C)cn1` [Compound 34], the IC50 is 49.4 nM.

On to `CC(C)N(Cc1ccc(F)c(-c2cccc(F)c2)c1)C(=O)c1cn(C)cn1` [Compound 20], for which the IC50 stood at 7.19 nM. As to `CC(C)N(Cc1ccc(F)c(-c2cccc(CO)c2)c1)C(=O)c1cn(C)cn1` [Compound 7], the IC50 was 25.9 nM. On the same count and under the same terms, the value for `CC(C)N(Cc1ccc(F)c(-c2cccc(OC(F)(F)F)c2)c1)C(=O)c1cn(C)cn1` [Compound 15] was 21.4 nM.

On to `CC(C)N(Cc1ccc(F)c(-c2cc(F)c(F)c(F)c2)c1)C(=O)c1cn(C)cn1` [Compound 36], for which the IC50 is 38.2 nM. With `CCOc1cccc(-c2cc(CN(C(=O)c3cn(C)cn3)C(C)C)ccc2F)c1` [Compound 21], the IC50 stood at 13.6 nM.

Take `COc1cccc(-c2cc(CN(C(=O)c3cn(C)cn3)C(C)C)ccc2F)c1` [Compound 24]: the IC50 worked out at 14.2 nM. Turning to `Cn1cnc(C(=O)N(Cc2ccc(F)c(-c3ccc(F)c(F)c3)c2)C2CCCC2)c1` [Compound 31], the IC50 is 21 nM. As to `COCCN(Cc1ccc(F)c(-c2ccc(OC(F)(F)F)cc2)c1)C(=O)c1cn(C)cn1` [Compound 16], the IC50 worked out at 41.5 nM. `CC(CO)N(Cc1ccc(F)c(-c2ccc(OC(F)(F)F)cc2)c1)C(=O)c1cn(C)cn1` (stereo not drawn) [Compound 52]: the IC50 came out at 30.7 nM. On to `CC(C)N(Cc1ccc(F)c(-c2ccc(F)c(F)c2)c1)C(=O)c1cn(C)cn1` [Compound 17], for which the IC50 amounted to 18.8 nM.

As for `CC(C)N(Cc1ccc(F)c(-c2cc(F)cc(C#N)c2)c1)C(=O)c1cn(C)cn1` [Compound 39], the IC50 stood at 48.5 nM. As for `Cn1cnc(C(=O)N(Cc2ccc(F)c(-c3cccc(CO)c3)c2)C2CCCCC2)n1` [Compound 6], the IC50 was 14.6 nM.

As for `CCn1cnc(C(=O)N(Cc2ccc(F)c(-c3cc(F)c(F)c(F)c3)c2)C(C)C)c1` [Compound 42], the IC50 was found to be 48.3 nM.

As to `COC(=O)c1cccc(-c2cc(CN(C(=O)c3ncn(C)n3)C3CCCCC3)ccc2F)c1` [Compound 2], the IC50 is 12.6 nM. `CC(C)N(Cc1ccc(F)c(-c2ccc(OC(F)F)cc2)c1)C(=O)c1cn(C)cn1` [Compound 35]: the IC50 was determined as 48.9 nM. Same read-out and setting: the value for `CC(C)N(Cc1ccc(F)c(-c2ccc(Cl)cc2)c1)C(=O)c1cn(C)cn1` [Compound 26] was 40 nM; that for `COc1ccc(-c2cc(CN(C(=O)c3cn(C)cn3)C(C)C)ccc2F)cc1` [Compound 25] was 25.4 nM; that for `Cn1cnc(C(=O)N(Cc2ccc(F)c(-c3cccc(CO)c3)c2)C2CCCCC2)c1` [Compound 8] was 11 nM. Take `COc1ccc(-c2cc(CN(C(=O)c3cn(C)cn3)C(C)C)ccc2F)cc1F` [Compound 19]: the IC50 stood at 18.6 nM.

Staying with this series, now noted: [3H]glycine 250 nM, 15 min, room temperature, read-out: glycine uptake inhibitory activity (IC50 value), bounds.
As for `C=C(C)N(Cc1ccc(F)c(-c2ccc(OC(F)(F)F)cc2)c1)C(=O)c1cn(C)cn1` [Compound 53, N-{[6-Fluoro-4′-(trifluoromethoxy)biphenyl-3-yl]methyl}-1-methyl-N-(prop-1-en-2-yl)-1H-imidazole-4-carboxamide], the IC50 was no less than 100 nM. Turning to `Cc1ccc(CN(C(=O)c2cn(C)cn2)C(C)C)cc1-c1ccc(F)cc1` [Compound 47], the IC50 was greater than 1000 nM. Regarding `CC(C)N(Cc1ccc(Cl)c(-c2ccc(F)cc2)c1)C(=O)c1cn(C)cn1` [Compound 51], the IC50 was no less than 100 nM. Consider `CC(C)N(Cc1cc(-c2ccc(F)cc2)cc(C(F)(F)F)c1)C(=O)c1cn(C)cn1` [Compound 49], for which the IC50 is greater than 1000 nM. Regarding `CC(C)N(Cc1ccc(F)c(-c2cc(F)c(F)c(F)c2)c1)C(=O)c1c[nH]cn1` [Compound 41], the half-inhibitory concentration (IC50) is greater than 1000 nM. Same read-out and setting: as for `Cc1ccc(CN(C(=O)c2cn(C)cn2)C(C)C)cc1-c1ccc(OC(F)(F)F)cc1` [Compound 46], the figure is greater than 1000 nM.

On to `CC(C)N(Cc1cc(-c2ccc(OC(F)(F)F)cc2)cc(C(F)(F)F)c1)C(=O)c1cn(C)cn1` [Compound 48], for which the IC50 was greater than 1000 nM. The same measure, in the same setting: the value for `CC(C)N(Cc1ccc(F)c(-c2ccc(C(F)(F)F)cc2)c1)C(=O)c1cn(C)cn1` [Compound 30] was no less than 100 nM; that for `CC(C)N(Cc1ccc(F)c(-c2ccc(OC(F)(F)F)cc2)c1)C(=O)c1ncn(C)n1` [Compound 4] was no less than 100 nM; that for `CC(C)N(Cc1ccc(F)c(-c2ccc(C#N)cc2F)c1)C(=O)c1cn(C)cn1` [Compound 37] was no less than 100 nM. For the molecule `CC(C)CN(Cc1ccc(F)c(-c2ccc(F)c(F)c2)c1)C(=O)c1cn(C)cn1` [Compound 32], the IC50 is no less than 100 nM.

Turning to `COc1ccc(CN(C(=O)c2cn(C)cn2)C(C)C)cc1-c1ccc(F)cc1` [Compound 43], the IC50 is greater than 1000 nM. Take `CC(C)N(Cc1cc(OC(F)(F)F)cc(-c2ccc(F)cc2)c1)C(=O)c1cn(C)cn1` [Compound 50]: the IC50 was greater than 1000 nM. Turning to `CC(C)N(Cc1ccc(F)c(-c2cccc(OC(F)(F)F)c2)c1)C(=O)c1ncn(C)n1` [Compound 3], the IC50 was no less than 100 nM. As to `CC(C)N(Cc1ccc(F)c(-c2cccc(CO)c2)c1)C(=O)c1ncn(C)n1` [Compound 5], the IC50 is no less than 100 nM.

The target in the next series is T2, P-glycoprotein (P-gp) (Homo sapiens, UniProt P08183).
T2 construct: expressed in transfected cells; host or cells: LLC-GA5-COL300 (pig kidney LLC-PK1 cells expressing human MDR1)
T2 sequence (P08183 whole entry): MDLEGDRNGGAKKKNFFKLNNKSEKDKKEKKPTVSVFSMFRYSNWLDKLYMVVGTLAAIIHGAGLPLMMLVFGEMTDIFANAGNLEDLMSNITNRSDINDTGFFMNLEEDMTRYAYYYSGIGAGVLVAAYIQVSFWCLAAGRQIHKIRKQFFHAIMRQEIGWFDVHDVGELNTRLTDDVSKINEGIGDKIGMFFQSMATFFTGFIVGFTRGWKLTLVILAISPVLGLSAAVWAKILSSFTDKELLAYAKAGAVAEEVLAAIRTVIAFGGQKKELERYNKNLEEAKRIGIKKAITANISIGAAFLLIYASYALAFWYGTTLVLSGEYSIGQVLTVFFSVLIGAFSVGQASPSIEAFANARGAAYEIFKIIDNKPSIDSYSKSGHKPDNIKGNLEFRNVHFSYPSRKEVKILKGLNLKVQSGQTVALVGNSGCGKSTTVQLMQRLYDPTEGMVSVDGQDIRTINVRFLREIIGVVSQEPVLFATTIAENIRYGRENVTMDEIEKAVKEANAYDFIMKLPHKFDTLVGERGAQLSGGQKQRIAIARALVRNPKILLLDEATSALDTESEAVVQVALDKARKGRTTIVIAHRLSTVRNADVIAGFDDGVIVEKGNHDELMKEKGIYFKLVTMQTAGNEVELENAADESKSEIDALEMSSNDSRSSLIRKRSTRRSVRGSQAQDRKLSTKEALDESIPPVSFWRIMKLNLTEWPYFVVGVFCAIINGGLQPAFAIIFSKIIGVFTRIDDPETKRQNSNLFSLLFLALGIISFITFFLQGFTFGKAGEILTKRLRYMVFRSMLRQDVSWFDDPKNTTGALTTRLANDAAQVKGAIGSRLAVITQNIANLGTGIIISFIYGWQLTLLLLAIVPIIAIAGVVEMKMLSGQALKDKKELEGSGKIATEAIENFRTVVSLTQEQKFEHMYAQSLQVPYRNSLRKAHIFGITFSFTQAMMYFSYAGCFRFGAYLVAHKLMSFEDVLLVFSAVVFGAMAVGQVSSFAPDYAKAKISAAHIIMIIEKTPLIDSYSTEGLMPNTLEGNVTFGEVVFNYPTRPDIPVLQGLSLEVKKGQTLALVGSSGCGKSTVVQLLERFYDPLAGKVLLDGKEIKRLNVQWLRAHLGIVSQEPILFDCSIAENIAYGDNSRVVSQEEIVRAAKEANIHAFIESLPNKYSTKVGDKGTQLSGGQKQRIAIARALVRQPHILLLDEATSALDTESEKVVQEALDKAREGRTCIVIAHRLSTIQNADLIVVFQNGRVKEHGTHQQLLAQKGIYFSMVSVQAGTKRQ
The experiment in a line: Test for substrate recognition by P-gp (LLC-GA5-COL300 cells). The note with it: 10 μM, Human MDR1-expressing LLC-GA5-COL300 cells, Apical to Basolateral and Basolateral to Apical. The series is classed as in vitro ADME. The text has this: In the case of drugs that act on the central nervous system, it is generally important for such drugs to be transferred from blood into brain for development of their efficacy. In the blood-brain barrier, there is found P-glycoprotein (P-gp), which is a typical member of the efflux transporters that control drug penetration; and P-gp inhibits the penetration of its substrate drugs into the brain. Thus, in developing a drug, recognition performance as a P-gp substrate can be used as an indicator of brain penetration.
A test for substrate recognition by P-gp was conducted as described in J. Pharmacol. Exp. Ther. (1992) Vol. 263, No. 2, 840-845 and J. Biol. Chem. (1992) Vol. 267, No. 34, 24248-24252. Specifically, LLC-GA5-COL300 cells (i.e., a Human MDR1-expressing system originating from a pig kidney-derived cultured renal epithelial cell line, LLC-PK1) were used after being cultured for 4 days on trans wells, and the medium in each well was replaced by Hank's balanced salt solution (HBSS) immediately before use in the test. After a test compound solution (i.e., a DMSO solution of a test compound, which was further diluted with HBSS and adjusted to a final concentration of 10 μM) was added to the Donor side of the LLC-GA5-COL300 cells, aliquots of HBSS were sampled over time from the Acceptor side to determine the test compound concentration in each collected sample by LC-MS/MS.
The membrane permeability coefficient (×10^−6 cm/sec) was calculated by the accumulated amount of the compound into the Acceptor side for both directions, Apical to Basolateral and Basolateral to Apical. and the ratio of these coefficients (Efflux Ratio) was then used to evaluate substrate recognition by P-gp.
For the molecule `CC(C)N(Cc1ccc(F)c(-c2cccc(F)c2)c1)C(=O)c1cn(C)cn1` [Compound 20], the “recognition as a P-gp substrate (Efflux Ratio criteria)” value was “not to be recognized as a P-gp substrate”. As for `CC(C)N(Cc1ccc(F)c(-c2cc(F)c(F)c(F)c2)c1)C(=O)c1cn(C)cn1` [Compound 36], the “recognition as a P-gp substrate (Efflux Ratio criteria)” value was “not to be recognized as a P-gp substrate”. Take `COc1cccc(-c2cc(CN(C(=O)c3cn(C)cn3)C(C)C)ccc2F)c1` [Compound 24]: the “recognition as a P-gp substrate (Efflux Ratio criteria)” value was “not to be recognized as a P-gp substrate”. With `CC(C)N(Cc1ccc(F)c(-c2ccc(F)c(F)c2)c1)C(=O)c1cn(C)cn1` [Compound 17], the “recognition as a P-gp substrate (Efflux Ratio criteria)” value is given as “not to be recognized as a P-gp substrate”.
